The source of these data is US20230017045A1, “PYRIDINE AND PYRIMIDINE CARBOXYLATE HERBICIDES AND METHODS OF USE THEREOF” (Dow AgroSciences LLC, priority 2017, published 2023).

Read-outs that look alike come from different tables or passages of the source.

The test system of this test is test plant species. The test can be described thus: Post-emergent herbicidal activity test (greenhouse, foliar spray, visual growth reduction). It is filed as in vivo. To be noted: post-emergence, 336 h, 140 g ai/ha, 14 days after application. In outline:
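Scoring used a 0 to 100 percent visual scale of growth reduction against solvent-treated controls, read 14 d after spraying. Applications went onto plants at first or second true leaf stage, 187 L/ha, with crop oil concentrate and X-77 surfactant in the carrier. Post-treatment watering was by subirrigation to avoid wash-off.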

[1] abbreviates: ALOMY: blackgrass (Alopecurus myosuroides), read-out: Visual Growth Reduction (%) 14 Days After Application, ALOMY.
Where [2] appears, read: AMARE: redroot pigweed (Amaranthus retroflexus), read-out: Visual Growth Reduction (%) 14 Days After Application, AMARE.
[3] abbreviates: AVEFA: wild oat (Avena fatua), read-out: Visual Growth Reduction (%) 14 Days After Application, AVEFA.
Where [4] appears, read: CHEAL: lambsquarters (Chenopodium album), read-out: Visual Growth Reduction (%) 14 Days After Application, CHEAL.
Where [5] appears, read: CIRAR: canada thistle (Cirsium arvense), read-out: Visual Growth Reduction (%) 14 Days After Application, CIRAR.
[6] abbreviates: CYPES: yellow nutsedge (Cyperus esculentus), read-out: Visual Growth Reduction (%) 14 Days After Application, CYPES.
[7] abbreviates: DIGSA: crabgrass (Digitaria sanguinalis), read-out: Visual Growth Reduction (%) 14 Days After Application, DIGSA.
Where [8] appears, read: ECHCG: barnyardgrass (Echinochloa crus-galli), read-out: Visual Growth Reduction (%) 14 Days After Application, ECHCG.
Where [9] appears, read: IPOHE: ivy-leaf morning glory (Ipomoea hederacea), read-out: Visual Growth Reduction (%) 14 Days After Application, IPOHE.
Where [10] appears, read: KCHSC: kochia (Bassia scoparia), read-out: Visual Growth Reduction (%) 14 Days After Application, KCHSC.
The mark [11] stands for this setting: ORYSA: rice (Oryza sativa), read-out: Visual Growth Reduction (%) 14 Days After Application, ORYSA.
Setting [12] is: SETFA: giant foxtail (Setaria faberi), read-out: Visual Growth Reduction (%) 14 Days After Application, SETFA.
Where [13] appears, read: SORVU: grain sorghum (Sorghum vulgare), read-out: Visual Growth Reduction (%) 14 Days After Application, SORVU.
Setting [14] is: STEME: common chickweed (Stellaria media), read-out: Visual Growth Reduction (%) 14 Days After Application, STEME.
The mark [15] stands for this setting: TRZAS: wheat, spring (Triticum aestivum), read-out: Visual Growth Reduction (%) 14 Days After Application, TRZAS.

Consider `COC(=O)c1nc(-c2cc3c(cc2F)OC(F)(F)O3)c(F)cc1Cl` [F173, Methyl 3-chloro-5-fluoro-6-(2,2,6-trifluorobenzo[d] [1,3]dioxol-5-yl)picolinate], for which the pest or weed control at 140 g/ha is 60 to 74% under setting [1]; 95 to 100% under setting [2]; 75 to 84% under setting [3]; 95 to 100% under setting [4]; 85 to 94% under setting [5]; 75 to 84% under setting [6]. Besides, the pest or weed control at 140 g/ha is, setting by setting: under setting [7], 95 to 100%; under setting [8], 85 to 94%; under setting [9], 95 to 100%; under setting [10], 60 to 74%; under setting [11], 0 to 29%; under setting [12], 75 to 84%. The pest or weed control at 140 g/ha fell in the range of 95 to 100% under setting [13], 0 to 29% under setting [14] and 60 to 74% under setting [15].
Regarding `COC(=O)c1nc(-c2cc3c(cc2F)OC(F)(F)O3)c(Cl)cc1Cl` [F174, Methyl 3,5-dichloro-6-(2,2,6-trifluorobenzo[d] [1,3]dioxol-5-yl)picolinate], the pest or weed control at 140 g/ha is, setting by setting: under setting [1], 0 to 29%; under setting [2], 85 to 94%; under setting [3], 0 to 29%; under setting [4], 85 to 94%; under setting [5], 0 to 29%; under setting [6], 0 to 29%. In addition, the pest or weed control at 140 g/ha fell in the range of 85 to 94% under setting [7]; 0 to 29% under setting [8]; 95 to 100% under setting [9]; 0 to 29% under setting [10]; 0 to 29% under setting [11]; 30 to 44% under setting [12]. For the same compound, the pest or weed control at 140 g/ha reads like this: under setting [13], 85 to 94%; under setting [14], 0 to 29%; under setting [15], 0 to 29%.
`O=C(O)c1nc(-c2cc3c(cc2Cl)OC(F)(F)O3)c(F)cc1Cl` [F175, 3-Chloro-6-(6-chloro-2,2-difluorobenzo[d] [1,3]dioxol-5-yl)-5-fluoropicolinic acid]: the pest or weed control at 140 g/ha lay within 60 to 74% under setting [1]; 95 to 100% under setting [2]; 60 to 74% under setting [3]; 95 to 100% under setting [4]; 85 to 94% under setting [5]; 0 to 29% under setting [6]. In addition, the pest or weed control at 140 g/ha by setting is: under setting [7], 95 to 100%; under setting [8], 85 to 94%; under setting [9], 95 to 100%; under setting [10], 85 to 94%; under setting [11], 45 to 59%; under setting [12], 85 to 94%. The pest or weed control at 140 g/ha is, setting by setting: under setting [13], 95 to 100%; under setting [14], 0 to 29%; under setting [15], 85 to 94%.
In the case of `COC(=O)c1nc(-c2ccc(C(F)(F)C(N)=O)cc2Cl)ccc1Cl` [F176, Methyl 6-(4-(2-amino-1,1-difluoro-2-oxoethyl)-2-chlorophenyl)-3-chloropicolinate], the pest or weed control at 140 g/ha by setting is: under setting [1], 0 to 29%; under setting [2], 0 to 29%; under setting [3], 0 to 29%; under setting [4], 0 to 29%; under setting [5], 0 to 29%; under setting [6], 0 to 29%. Besides, the pest or weed control at 140 g/ha runs as follows: under setting [7], 0 to 29%; under setting [8], 0 to 29%; under setting [9], 0 to 29%; under setting [10], 0 to 29%; under setting [11], 0 to 29%; under setting [12], 0 to 29%. In addition, the pest or weed control at 140 g/ha runs as follows: under setting [13], 0 to 29%; under setting [14], 0 to 29%; under setting [15], 0 to 29%.
For the compound `COCC(F)(F)c1ccc(-c2ccc(Cl)c(C(=O)OC)n2)c(Cl)c1` [F177, methyl 3-chloro-6-(2-chloro-4-(1,1-difluoro-2-methoxyethyl)phenyl)picolinate], the pest or weed control at 140 g/ha was 0 to 29% under setting [1]; 0 to 29% under setting [2]; 0 to 29% under setting [3]; 60 to 74% under setting [4]; 45 to 59% under setting [5]; 0 to 29% under setting [6]. Further, the pest or weed control at 140 g/ha under setting [7] fell in the range of 0 to 29%; the pest or weed control at 140 g/ha under setting [8] lay within 0 to 29%; the pest or weed control at 140 g/ha under setting [9] lay in the range of 60 to 74%; the pest or weed control at 140 g/ha under setting [10] is 45 to 59%; the pest or weed control at 140 g/ha under setting [11] was 0 to 29%; the pest or weed control at 140 g/ha under setting [12] lay in the range of 0 to 29%. The pest or weed control at 140 g/ha was in the range of 30 to 44% under setting [13], 0 to 29% under setting [14] and 0 to 29% under setting [15].
Turning to `COC(=O)c1nc(-c2ccc(C(F)(F)C#N)cc2Cl)ccc1Cl` [F178, Methyl 3-chloro-6-(2-chloro-4-(cyanodifluoromethyl)phenyl)picolinate], the pest or weed control at 140 g/ha fell in the range of 0 to 29% under setting [1]; 0 to 29% under setting [2]; 0 to 29% under setting [3]; 0 to 29% under setting [4]; 0 to 29% under setting [5]; 0 to 29% under setting [6]. Further, the pest or weed control at 140 g/ha fell in the range of 0 to 29% under setting [7]; 0 to 29% under setting [8]; 0 to 29% under setting [9]; 0 to 29% under setting [10]; 0 to 29% under setting [11]; 0 to 29% under setting [12]. Further, the pest or weed control at 140 g/ha is 0 to 29% under setting [13], 0 to 29% under setting [14] and 0 to 29% under setting [15].
For the compound `COCC(F)(F)c1ccc(-c2ccc(Cl)c(C(=O)O)n2)c(Cl)c1` [F179, 3-chloro-6-(2-chloro-4-(1,1-difluoro-2-methoxyethyl)phenyl)picolinic acid], the pest or weed control at 140 g/ha lay within 0 to 29% under setting [1]; 60 to 74% under setting [2]; 0 to 29% under setting [3]; 0 to 29% under setting [4]; 0 to 29% under setting [5]; 0 to 29% under setting [6]. In addition, the pest or weed control at 140 g/ha reads like this: under setting [7], 0 to 29%; under setting [8], 0 to 29%; under setting [9], 95 to 100%; under setting [10], 60 to 74%; under setting [11], 0 to 29%; under setting [12], 0 to 29%. Further, the pest or weed control at 140 g/ha fell in the range of 0 to 29% under setting [13], 0 to 29% under setting [14] and 0 to 29% under setting [15].
Consider `O=C(O)c1nc(-c2ccc(C(F)(F)C(=O)O)cc2Cl)ccc1Cl` [F180, 6-(4-(Carboxy-difluoromethyl)-2-chlorophenyl)-3-chloropicolinic acid], for which the pest or weed control at 140 g/ha reads like this: under setting [1], 0 to 29%; under setting [2], 0 to 29%; under setting [3], 0 to 29%; under setting [4], 0 to 29%; under setting [5], 0 to 29%; under setting [6], 0 to 29%. Further, the pest or weed control at 140 g/ha lay in the range of 0 to 29% under setting [7]; 0 to 29% under setting [8]; 0 to 29% under setting [9]; 0 to 29% under setting [10]; 0 to 29% under setting [11]; 0 to 29% under setting [12]. Moreover, the pest or weed control at 140 g/ha is 0 to 29% under setting [13], 0 to 29% under setting [14] and 0 to 29% under setting [15].
